From patent US12187723B2 (BRISTOL-MYERS SQUIBB COMPANY, priority 2019, dated 2025)

Key:
human TLR8 = target: T1, human TLR8 (Homo sapiens, UniProt Q9NR97); experiment: TLR8 inhibition reporter assay (HEK-Blue SEAP); format: cell-based; details: HEK-Blue cells overexpressing human TLR8, R848 15.9 μM, 22 hour incubation
T1 construct: host or cells: HEK-Blue cells
T1 sequence (Q9NR97 27-1041): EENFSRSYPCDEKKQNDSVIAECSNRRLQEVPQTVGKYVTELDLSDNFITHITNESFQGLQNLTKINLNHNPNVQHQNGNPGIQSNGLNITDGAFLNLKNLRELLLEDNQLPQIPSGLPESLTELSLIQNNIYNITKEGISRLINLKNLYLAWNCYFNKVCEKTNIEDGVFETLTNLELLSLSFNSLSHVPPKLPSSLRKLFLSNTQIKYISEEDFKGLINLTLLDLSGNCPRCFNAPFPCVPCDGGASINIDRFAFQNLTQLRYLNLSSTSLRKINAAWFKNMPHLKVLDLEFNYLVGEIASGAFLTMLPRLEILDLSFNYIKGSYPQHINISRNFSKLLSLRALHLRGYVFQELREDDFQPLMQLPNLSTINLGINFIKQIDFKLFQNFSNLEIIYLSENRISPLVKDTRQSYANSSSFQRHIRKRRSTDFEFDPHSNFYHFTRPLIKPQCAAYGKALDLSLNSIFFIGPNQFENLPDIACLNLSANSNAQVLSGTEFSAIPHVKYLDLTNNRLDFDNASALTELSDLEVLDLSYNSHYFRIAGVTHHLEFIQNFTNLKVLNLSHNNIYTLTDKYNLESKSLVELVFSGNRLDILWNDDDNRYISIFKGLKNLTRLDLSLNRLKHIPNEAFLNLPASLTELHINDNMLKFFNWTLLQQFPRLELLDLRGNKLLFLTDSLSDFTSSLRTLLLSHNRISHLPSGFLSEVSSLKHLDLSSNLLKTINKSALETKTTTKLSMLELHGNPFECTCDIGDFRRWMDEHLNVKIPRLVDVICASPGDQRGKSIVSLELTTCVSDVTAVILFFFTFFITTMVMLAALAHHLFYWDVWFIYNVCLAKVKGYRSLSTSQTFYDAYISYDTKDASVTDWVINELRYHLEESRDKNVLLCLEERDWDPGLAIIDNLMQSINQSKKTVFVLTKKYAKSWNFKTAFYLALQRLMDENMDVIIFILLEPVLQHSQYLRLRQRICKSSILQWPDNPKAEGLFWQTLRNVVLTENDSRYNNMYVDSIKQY
Procedure, shortened: (§1)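 Human TLR7/8/9 HEK-Blue reporter lines; dose range 0.05 nM–50 μM; 30 min RT preincubation; stimulus gardiquimod 7.5 μM / R848 15.9 μM / ODN2006 5 nM respectively; 22 h, 37 °C; SEAP detected colorimetrically.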

human TLR9 = target: T2, human TLR9 (Homo sapiens, UniProt Q9NR96); experiment: TLR9 inhibition reporter assay (HEK-Blue SEAP); format: cell-based; details: HEK-Blue cells overexpressing human TLR9, ODN2006 5 nM, 22 hour incubation
T2 construct: host or cells: HEK-Blue cells
T2 sequence (Q9NR96 26-1032): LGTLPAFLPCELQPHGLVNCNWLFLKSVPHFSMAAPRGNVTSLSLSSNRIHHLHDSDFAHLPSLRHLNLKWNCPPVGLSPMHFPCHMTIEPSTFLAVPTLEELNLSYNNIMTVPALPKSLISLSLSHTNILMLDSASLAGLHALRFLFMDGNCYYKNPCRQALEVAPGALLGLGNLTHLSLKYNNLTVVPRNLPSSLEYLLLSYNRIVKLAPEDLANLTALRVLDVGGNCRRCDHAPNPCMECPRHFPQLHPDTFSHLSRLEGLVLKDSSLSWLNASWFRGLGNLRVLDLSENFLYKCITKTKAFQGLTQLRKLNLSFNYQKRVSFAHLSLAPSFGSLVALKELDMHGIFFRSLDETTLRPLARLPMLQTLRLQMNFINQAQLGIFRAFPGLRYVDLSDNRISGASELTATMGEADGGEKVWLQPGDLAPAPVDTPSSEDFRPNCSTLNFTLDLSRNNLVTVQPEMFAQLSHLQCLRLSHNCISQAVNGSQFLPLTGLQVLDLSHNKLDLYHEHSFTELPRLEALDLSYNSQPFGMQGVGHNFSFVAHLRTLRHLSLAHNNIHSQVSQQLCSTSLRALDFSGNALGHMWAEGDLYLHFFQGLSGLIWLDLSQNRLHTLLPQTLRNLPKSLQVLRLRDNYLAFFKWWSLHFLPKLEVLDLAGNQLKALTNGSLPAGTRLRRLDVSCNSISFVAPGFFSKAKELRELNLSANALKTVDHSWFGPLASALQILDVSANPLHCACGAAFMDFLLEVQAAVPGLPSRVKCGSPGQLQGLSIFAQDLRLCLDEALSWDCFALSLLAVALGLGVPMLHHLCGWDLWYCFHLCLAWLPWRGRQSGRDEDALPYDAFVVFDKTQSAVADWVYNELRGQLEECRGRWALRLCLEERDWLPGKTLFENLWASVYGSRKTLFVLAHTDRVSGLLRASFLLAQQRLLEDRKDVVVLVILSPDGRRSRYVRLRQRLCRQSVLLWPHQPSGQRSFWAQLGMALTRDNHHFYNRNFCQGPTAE
Procedure, shortened: as §1

SMILES	IC50 (human TLR8)	IC50 (human TLR9)
Cc1cc2c(cc1-c1cc(C)c3ncnn3c1)[nH]c(=O)n2[C@@H]1CCCN(Cc2ncn(C)n2)C1 [Example 35, (R)-6-methyl-1-(1-((1-methyl-1H-1,2,4-triazol-3-yl)methyl)piperidin-3-yl)-5-(8-methyl-[1,2,4]triazolo[1,5-a]pyridin-6-yl)-1,3-dihydro-2H-benzo[d]imidazol-2-one]	220 nM	> 50000 nM
COc1cc(-c2cc3[nH]c(=O)n([C@@H]4CCCN(CC(C)C)C4)c3cc2C)cn2ncnc12 [Example 56, (R)-1-(1-isobutylpiperidin-3-yl)-5-(8-methoxy-[1,2,4]triazolo[1,5-a]pyridin-6-yl)-6-methyl-1,3-dihydro-2H-benzo[d]imidazol-2-one]	11.2 nM	4810 nM
CCCN1CCC[C@@H](n2c(=O)[nH]c3cc(-c4cc(C)c5ncnn5c4)c(C)cc32)C1 [Example 42, (R)-6-methyl-5-(8-methyl-[1,2,4]triazolo[1,5-a]pyridin-6-yl)-1-(1-propylpiperidin-3-yl)-1,3-dihydro-2H-benzo[d]imidazol-2-one]	29.5 nM	10500 nM
Cc1cc2c(cc1-c1cc(C)c3ncnn3c1)[nH]c(=O)n2[C@@H]1CCCN(Cc2cccnc2)C1 [Example 46, (R)-6-methyl-5-(8-methyl-[1,2,4]triazolo[1,5-a]pyridin-6-yl)-1-(1-(pyridin-3-ylmethyl)piperidin-3-yl)-1,3-dihydro-2H-benzo[d]imidazol-2-one]	42.4 nM	7670 nM
COc1cc(-c2cc3[nH]c(=O)n([C@H]4CC[C@@H](N(C)C5CCOCC5)CC4)c3cc2C)cn2ncnc12 [Example 85, 5-(8-methoxy-[1,2,4]triazolo[1,5-a]pyridin-6-yl)-6-methyl-1-((1s,4s)-4-(methyl(tetrahydro-2H-pyran-4-yl)amino)cyclohexyl)-1,3-dihydro-2H-benzo[d]imidazol-2-one]	7.14 nM	7940 nM
CCC(CC)N1CCC[C@@H](n2c(=O)[nH]c3cc(-c4cc(OC)c5ncnn5c4)c(C)cc32)C1 [Example 67, (R)-5-(8-methoxy-[1,2,4]triazolo[1,5-a]pyridin-6-yl)-6-methyl-1-(1-(pentan-3-yl)piperidin-3-yl)-1,3-dihydro-2H-benzo[d]imidazol-2-one]	52 nM	9620 nM
COc1cc(-c2cc3[nH]c(=O)n([C@H]4CC[C@@H](NC5CCOCC5)CC4)c3cc2C)cn2ncnc12 [Example 49, 5-(8-methoxy-[1,2,4]triazolo[1,5-a]pyridin-6-yl)-6-methyl-1-((1s,4s)-4-((tetrahydro-2H-pyran-4-yl)amino)cyclohexyl)-1,3-dihydro-2H-benzo[d]imidazol-2-one]	3.26 nM	7430 nM
CCN1CCC[C@@H](n2c(=O)[nH]c3cc(-c4cc(OC)c5ncnn5c4)c(C)cc32)C1 [Example 52, (R)-1-(1-ethylpiperidin-3-yl)-5-(8-methoxy-[1,2,4]triazolo[1,5-a]pyridin-6-yl)-6-methyl-1,3-dihydro-2H-benzo[d]imidazol-2-one]	25.7 nM	2960 nM
COc1cc(-c2cc3[nH]c(=O)n([C@H]4CC[C@@H](N(C)C)CC4)c3cc2C)cn2ncnc12 [Example 48, 1-((1s,4s)-4-(dimethylamino)cyclohexyl)-5-(8-methoxy-[1,2,4]triazolo[1,5-a]pyridin-6-yl)-6-methyl-1,3-dihydro-2H-benzo[d]imidazol-2-one]	5.33 nM	3770 nM
CCC(CC)CN1CCC[C@@H](n2c(=O)[nH]c3cc(-c4cc(C)c5ncnn5c4)c(C)cc32)C1 [Example 45, (R)-1-(1-(2-ethylbutyl)piperidin-3-yl)-6-methyl-5-(8-methyl-[1,2,4]triazolo[1,5-a]pyridin-6-yl)-1,3-dihydro-2H-benzo[d]imidazol-2-one]	48.1 nM	3030 nM
COc1cc(-c2cc3[nH]c(=O)n([C@H]4CC[C@@H](NC5CCC5)CC4)c3cc2C)cn2ncnc12 [Example 58, 1-((1s,4s)-4-(cyclobutylamino)cyclohexyl)-5-(8-methoxy-[1,2,4]triazolo[1,5-a]pyridin-6-yl)-6-methyl-1,3-dihydro-2H-benzo[d]imidazol-2-one]	5.2 nM	4120 nM
COc1cc(-c2cc3[nH]c(=O)n([C@@H]4CCCN(C)C4)c3cc2C)cn2ncnc12 [Example 51, (R)-5-(8-methoxy-[1,2,4]triazolo[1,5-a]pyridin-6-yl)-6-methyl-1-(1-methylpiperidin-3-yl)-1,3-dihydro-2H-benzo[d]imidazol-2-one]	21 nM	8390 nM
COc1cc(-c2cc3[nH]c(=O)n([C@@H]4CCCN(C5CCC5)C4)c3cc2C)cn2ncnc12 [Example 69, (R)-1-(1-cyclobutylpiperidin-3-yl)-5-(8-methoxy-[1,2,4]triazolo[1,5-a]pyridin-6-yl)-6-methyl-1,3-dihydro-2H-benzo[d]imidazol-2-one]	110 nM	19300 nM
Cc1cc2c(cc1-c1cc(C)c3ncnn3c1)[nH]c(=O)n2C1CCN(C(C)C)CC1 [Example 2, 1-(1-isopropylpiperidin-4-yl)-6-methyl-5-(8-methyl-[1,2,4]triazolo[1,5-a]pyridin-6-yl)-1,3-dihydro-2H-benzo[d]imidazol-2-one]	107 nM	5560 nM
COc1cc(-c2cc3[nH]c(=O)n([C@H]4CC[C@@H](NC(C)C)CC4)c3cc2C)cn2ncnc12 [Example 50, 1-((1s,4s)-4-(isopropylamino)cyclohexyl)-5-(8-methoxy-[1,2,4]triazolo[1,5-a]pyridin-6-yl)-6-methyl-1,3-dihydro-2H-benzo[d]imidazol-2-one]	4.86 nM	10900 nM
Cc1cc2c(cc1-c1cc(C)c3ncnn3c1)[nH]c(=O)n2[C@H]1CC[C@@H](NCc2ncn(C)n2)CC1 [Example 33, 6-methyl-1-((1s,4s)-4-(((1-methyl-1H-1,2,4-triazol-3-yl)methyl)amino)cyclohexyl)-5-(8-methyl-[1,2,4]triazolo[1,5-a]pyridin-6-yl)-1,3-dihydro-2H-benzo[d]imidazol-2-one]	10.9 nM	21100 nM
